The values that follow come from US20240327406A1, “POTASSIUM CHANNEL MODULATORS” (Autifony Therapeutics Limited, priority 2021, published 2024).

Data set [1] deals with T1, human Kv3.1 channels (hKv3.1) (Homo sapiens, UniProt P48547).
T1 sequence (P48547 1-501 limits assumed): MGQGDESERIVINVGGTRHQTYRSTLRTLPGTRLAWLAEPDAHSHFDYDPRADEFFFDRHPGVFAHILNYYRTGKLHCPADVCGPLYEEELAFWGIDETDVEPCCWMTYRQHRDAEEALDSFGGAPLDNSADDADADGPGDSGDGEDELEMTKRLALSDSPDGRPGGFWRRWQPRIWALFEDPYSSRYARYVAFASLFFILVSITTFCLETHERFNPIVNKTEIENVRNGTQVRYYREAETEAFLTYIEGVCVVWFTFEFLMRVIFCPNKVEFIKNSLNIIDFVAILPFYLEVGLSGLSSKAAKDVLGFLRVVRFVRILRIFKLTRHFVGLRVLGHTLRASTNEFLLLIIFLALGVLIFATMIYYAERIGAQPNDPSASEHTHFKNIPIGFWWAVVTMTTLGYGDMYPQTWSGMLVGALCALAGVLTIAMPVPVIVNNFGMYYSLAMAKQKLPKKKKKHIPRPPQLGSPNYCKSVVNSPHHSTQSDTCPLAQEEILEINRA
In words: Measurement of Kv3 channel modulation: Kv3.1 assay (IonWorks Quattro whole-cell electrophysiology). In kind it is cell-based. To be noted: for Kv3.1 max R %: normalised to maximum effect of reference compound (50 microM); for EC50: read-out: Kv3.1 pEC50 (converted). (In patch-clamp work, channel activity is measured electrically.)

Data set [2] is described as follows: Determination of in vivo pharmacokinetic parameters (blood and brain concentrations). To be noted: male, rat. The protocol:
Adult male rats (Charles River, Italy) are dosed with test compound orally at 1 mg/kg (5 ml/kg, in 5% v/v DMSO, 0.5% w/v HPMC in water) and intravenously at 0.5 mg/kg (2 ml/kg, in 5% v/v DMSO 40% w/v PEG400 in saline). After oral administration, blood samples are collected under deep Isofluorane anesthesia from the portal vein and heart of each rat (1 rat per time point). After intravenous administration, serial blood samples are collected from the lateral tail vein of each rat. Blood and brain samples are collected at a single timepoint of 0.5 h after dose administration for these animals. In all cases, blood samples are collected into potassium EDTA tubes.
A further group of rats (n=1 per test compound) receive a single intravenous administration of the PgP transport inhibitor, Elacridar (3 mg/kg) shortly before the oral administration of the test compound at 1 mg/kg, as above.
Blood and brain samples can be assayed for test compound concentration using a method based on protein precipitation with acetonitrile followed by HPLC/MS-MS analysis with an optimized analytical method.
The concentrations of test compound in blood (expressed as ng/ml) and brain (expressed as ng/g) at the different time points following either oral or intravenous dosing are analysed using a non-compartmental pharmacokinetic model using WinNonLin Professional version 4.1. The following parameters are derived:
Intravenous dosing: Maximum concentration over time (Cmax), integrated concentration over time (AUC), clearance (Clb), volume of distribution (Vss), half-life (t1/2) and Brain/Heart Blood conc @0.5 hr.
Oral dosing: Cmax, time of maximum concentration (Tmax), AUC, bioavailability (F %), fraction absorbed (Fa %), blood to brain ratio (AUC B/B), and Fold-change in AUC B/B in the presence of Elacridar.

Setting [3] is: Table 2, Example compounds, rounded to one decimal place, some compounds with two data sets (n given in cell).

SMILES strings stand for the structures. “And” between values parts separate entries of the source, which are not always exact repeats. Identical values can stand only once. Like-named read-outs stand apart in the source and are kept apart here.

Take `Cc1ccc(Oc2ccc(-n3c(=O)[nH]c4cccnc43)cn2)cc1OC(F)(F)F` [Example 4, 3-[6-[4-methyl-3-(trifluoromethoxy)phenoxy]-3-pyridyl]-1H-imidazo[4,5-b]pyridin-2-one]: in data set [1] (Table 2, Example compounds), the “Kv3.1 max R %” value is on record as 111%. Further, the EC50 in data set [1] (setting [3]) was 1260 nM; in data set [1] (Table 5, Example compounds), 1260 nM.
Consider `O=c1[nH]c2cccnc2n1-c1cnc(Oc2cccc(OC(F)(F)F)c2)nc1` [Example 17, 3-[2-[3-(trifluoromethoxy)phenoxy]pyrimidin-5-yl]-1H-imidazo[4,5-b]pyridin-2-one], for which the “Kv3.1 max R %” value in data set [1] (Table 2, Example compounds) was 103% and 125%. The EC50 in data set [1] (setting [3]) is 1260 nM; in data set [1] (Table 5, Example compounds), 1000 nM. The Kp in data set [2] (brain and blood, oral dosing 1 mg/kg, read-out: AUC B/B (brain/blood) ratio) is 0.45. In data set [2] (brain and heart blood, intravenous, 0.5 mg/kg, 0.5 h after dose administration, read-out: Brain/Heart Blood conc @0.5 hr), the Kp at 0.5 h stood at 0.76.
As to `Cc1ccc(Oc2ncc(-n3c(=O)[nH]c4cccnc43)cn2)cc1OC(F)(F)F` [Example 32, 3-[2-[4-methyl-3-(trifluoromethoxy)phenoxy]pyrimidin-5-yl]-1H-imidazo[4,5-b]pyridin-2-one], the “Kv3.1 max R %” value in data set [1] (Table 2, Example compounds) is listed as 174%. The EC50 in data set [1] (setting [3]) was 1580 nM; in data set [1] (Table 5, Example compounds) it was 1580 nM.
